Consider 6 compounds from patent US9962341B2, “Active pharmaceutical ingredient (API) comprising cannabinoids for use in the treatment of cancer” (GW Pharma Limited, priority 2014, dated 2018).

SMILES strings stand for the structures. pIC50: −log10 of the molar value. Read-outs that look alike come from different tables or passages of the source.

The test relates to SKBR3. The test is described as follows: Cell viability (CellTiter-Blue, 72 h), SKBR3 breast cancer cells. The class given is cell-based. Particulars: for pIC50: Homo sapiens; for effect (but only 50% effect): extent of effect reached. As for the experimental part: The cell lines tested in this Example were as follows. Breast cancer: MDA-MB-231; SK-BR3; and BT474. Liver cancer: HepG2.
The phytocannabinoids were tested alone and in various ratioed combinations in media containing final concentrations of 10% and 1% foetal bovine serum at 72 h for the breast and prostate cancer lines and 1% foetal bovine serum for the liver cancer line HepG2.
Each tumour cell line was maintained in vitro in RPMI 1640+10% heat inactivated FBS and 2 mM L-glutamine (growth media) at 37° C. in 5% CO2 and humidified conditions. The cells were harvested, washed, re-suspended into growth medium and counted. The cells were re-suspended into assay media (RPMI 1640+5% heat inactivated FBS+ and 2 mM L-glutamine) at 8×104-2×10^5 cells/ml (dependent upon cell type) and plated into the middle 240 wells of 384 well tissue culture plates (Corning CellBind, black-wall plates) 12.5 μl/well aliquots; 62.5 μl of growth media was aliquoted into the outer wells. There were 4 plates for each cell line. The plates were incubated overnight at 37° C., in 5% humidified CO2.
The phytocannabinoid test compounds were prepared in 100% DMSO vehicle at a stock concentration of 10 mM.
Starting with the 10 mM stock, the compounds were diluted to 125 μM in FBS-free growth media.
These were diluted in FBS-free growth media to 125 μM before serial dilution.
5 volumes of CBD 10 mM stock was added to 1 volume of the other agent (also at 10 mM) and 4 volumes of DMSO. This made a final concentration of 5 mM:1 mM. This was then diluted in FBS-free growth media so the top concentration of CBD would be 125 μM (before serial dilution). Each compound and compound combination stock was serially diluted in FBS-free growth media (containing 1.25% v/v DMSO) from 125 μM to 41.7, 13.89, 4.63, 1.54, 0.514, 0.171, 0.057 and 0.019 μM (1.25× final assay concentrations). Vehicle was prepared at equivalent dilutions in assay media. The top final concentration of compound in the assay was always 100 μM so CBD5:1CBG was 100 μM CBD and 20 μM CBG.
Taxotere SOC was prepared at a stock concentration of 1 mM in 100% DMSO. Taxotere was serially diluted from the stock solution into FBS-free growth media to 12.5 μM, then serially diluted in FBS-free growth media containing 1.25% DMSO to 4.17, 1.39, 0.46, 0.154, 0.051, 0.017, 0.006, 0.002 μM (1.25× final assay concentrations).
This was then serially diluted in FBS-free growth media to 0.417, 0.139, 0.046, 0.0154, 0.0051, 0.0017, 0.0006, 0.0002 μM (1.25× final assay concentrations). This was plated as a positive control for the SKBR3 & BT474 cell lines. 50 μl per well of compound/vehicle dilutions was added to the plates in replicates of 6. Where applicable total volume in the well was made up to 62.5 μl with assay media.
The plates were incubated for 72 h at 37° C. in 5% humidified CO2. To develop the plates, at 72 h, 10 μl of CellTiter-Blue™ reagent was added to each test/blank well. The plates were incubated at 37° C., 5% humidified CO2. Fluorescence was measured using a Flex II Station plate reader (570 nm excitation wavelength, 600 nm emission wavelength, 590 nm cut-off) after 3 h.
The experimental conditions were the same as the experiment above, with the same compound dilutions and volumes for plating but using growth media containing 10% FBS rather than FBS-free media.
The raw data values expressed in relative fluorescent units were normalised to the vehicle for each individual plate and any reduction in fluorescence indicated a decrease in viability.
The data were analysed in GraphPad PRISM using a non-linear sigmoidal plot with variable slope (asymmetric five point linear regression) and where possible an IC50 value for each single compound and combination was generated.
For the calculation, raw data values expressed in relative fluorescent units were normalised to the vehicle for each individual plate (set as 0%) and the reduction in fluorescence calculated as an increase in inhibition of viability.
For orientation: The colour change of resazurin is a common sign of viable cells or microbes.

[1] abbreviates: SK-BR-3, 72 h, read-out: IC50 values, SKBR3, 1% FBS, 72 h.
[2] abbreviates: SK-BR-3, 72 h, read-out: IC50 values, SKBR3, 10% FBS, 72 h.
[3] abbreviates: SK-BR-3, read-out: Dm (median effect dose), SKBR3, 1% FBS, Calcusyn median-effect analysis.

Take `C=C(C)[C@@H]1CCC(C)=C[C@H]1c1c(O)cc(CCCCC)cc1O` [CBD, Cannabidiol]: the pIC50 was 5.40 under setting [1], 4.64 under setting [2] and 5.03 under setting [3].
`C=C(C)[C@@H]1CCC(C)=C[C@H]1c1c(O)cc(CCCCC)c(C(=O)O)c1O` [CBDA, Cannabidiolic acid]: the pIC50 reads like this: under setting [1], 4.84; under setting [2], about 4.00; under setting [3], 4.52.
`CCCCCc1cc(O)c(C/C=C(\C)CCC=C(C)C)c(O)c1` [CBG, Cannabigerol]: the pIC50 reads like this: under setting [1], 5.40; under setting [2], 4.48; under setting [3], 5.07.
The like results for `CCCCCc1cc(O)c(C/C=C(\C)CCC=C(C)C)c(O)c1C(=O)O` [CBGA, Cannabigerolic acid] were, in that order, 4.97, under 4.00 and 4.77.
The corresponding values for `CCCc1cc(O)c2c(c1)OC(C)(C)[C@@H]1CCC(C)=C[C@@H]21` [THCV, Tetrahydrocannabivarin] are 4.97, 4.52 and 4.74.
For the compound `CC(=O)O[C@@]12CO[C@@H]1C[C@H](O)[C@@]1(C)C(=O)[C@H](O)C3=C(C)[C@@H](OC(=O)[C@H](O)[C@@H](NC(=O)OC(C)(C)C)c4ccccc4)C[C@@](O)([C@@H](OC(=O)c4ccccc4)[C@H]21)C3(C)C` [Taxotere, Docetaxel, reference compound], the pIC50 is over 9.00 under setting [1] and over 9.00 under setting [2]. Also, the “effect (but only 50% effect)” value was “only 50%” (SKBR3, 1% FBS) and 50% effect) (SKBR3, 10% FBS).
